This note sets out measurements from US20110224204A1, “DI-SUBSTITUTED PHENYL COMPOUNDS” (priority 2008, published 2011).

Human PDE10A1, sequence (Q9Y233 1-779 isoform Q9Y233-1): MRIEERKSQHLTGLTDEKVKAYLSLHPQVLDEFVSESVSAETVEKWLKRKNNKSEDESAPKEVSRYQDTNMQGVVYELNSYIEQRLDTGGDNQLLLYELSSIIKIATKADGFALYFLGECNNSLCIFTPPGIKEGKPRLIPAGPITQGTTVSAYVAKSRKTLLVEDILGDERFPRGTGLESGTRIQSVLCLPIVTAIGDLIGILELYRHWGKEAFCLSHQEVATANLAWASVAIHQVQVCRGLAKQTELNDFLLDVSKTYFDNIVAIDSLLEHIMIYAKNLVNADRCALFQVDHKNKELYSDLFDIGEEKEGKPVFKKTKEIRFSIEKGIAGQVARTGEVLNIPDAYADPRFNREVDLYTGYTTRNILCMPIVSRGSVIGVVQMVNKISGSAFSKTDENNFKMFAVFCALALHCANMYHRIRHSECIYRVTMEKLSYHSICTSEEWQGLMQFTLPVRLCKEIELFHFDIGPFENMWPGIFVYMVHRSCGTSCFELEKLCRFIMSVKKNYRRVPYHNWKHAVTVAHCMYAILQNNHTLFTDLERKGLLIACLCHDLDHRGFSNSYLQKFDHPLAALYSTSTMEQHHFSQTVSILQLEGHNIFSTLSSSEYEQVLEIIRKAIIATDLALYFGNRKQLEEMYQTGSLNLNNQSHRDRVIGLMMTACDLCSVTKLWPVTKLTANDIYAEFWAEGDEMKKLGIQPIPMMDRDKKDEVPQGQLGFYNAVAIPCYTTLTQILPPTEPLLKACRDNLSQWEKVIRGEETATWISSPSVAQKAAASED

This assay has as its target Human PDE10A1 (Homo sapiens, UniProt Q9Y233). Put plainly: hPDE10A1 Enzyme Inhibition. In kind it is biochemical. The conditions noted are these: [3H]-cAMP substrate; read-out: hPDE10A1 IC50 Band. As to the method: hPDE10A1 Enzyme Activity: 50 μl samples of serially diluted Human PDE10A1 enzyme were incubated with 50 μl of [^3H]-cAMP for 20 minutes (at 37° C.). Reactions were carried out in Greiner 96 deep well 1 ml master-block. The enzyme was diluted in 20 mM Tris HCl pH7.4 and [^3H]-cAMP was diluted in 10 mM MgCl2, 40 mM Tris.HCl pH 7.4. The reaction was terminated by denaturing the PDE enzyme (at 70° C.) after which [^3H]-5′-AMP was converted to [^3H]-adenosine by adding 25 μl snake venom nucleotidase and incubating for 10 minutes (at 37° C.). Adenosine, being neutral, was separated from charged cAMP or AMP by the addition of 200 μl Dowex resin. Samples were shaken for 20 minutes then centrifuged for 3 minutes at 2,500 r.p.m. 50 μl of supernatant was removed and added to 200 μl of MicroScint-20 in white plates (Greiner 96-well Optiplate) and shaken for 30 minutes before reading on Perkin Elmer TopCount Scintillation Counter.
hPDE10A1 Enzyme Inhibition: To check inhibition profile 11 μl of serially diluted inhibitor was added to 50 μl of [^3H]-cAMP and 50 ul of diluted Human PDE10A1 and assay was carried out as in the enzyme activity assay. Data was analysed using Prism software (GraphPad Inc).
Regarding `Clc1ccc(-c2ccccc2-c2ccc(OCc3ccc4ccccc4n3)cc2)cc1` [Example 180], the IC50 was more than 50 nM. To `COc1cc(-c2ccccc2-c2ccc(OCc3ccc4ccccc4n3)cc2)ccc1C#N` [Example 205] belongs not above 50 nM; to `N#Cc1ccc(-c2ccccc2-c2ccc(OCc3ccc4ccccc4n3)cc2)cc1` [Example 255], not above 50 nM; to `COc1ccc(-c2ccccc2-c2ccc(OCc3ccc4ccccc4n3)cc2)cc1C#N` [Example 281], not above 50 nM. To `COc1ccc(-c2ccccc2-c2ccc(OCc3ccc4ccccc4n3)cc2)cc1` [Example 330] belongs more than 50 nM. To `c1ccc(-c2ccc(OCc3ccc4ccccc4n3)cc2)c(-c2ccncc2)c1` [Example 380, 2-((2′-(Pyridin-4-yl)biphenyl-4-yloxy)methyl)quinoline] belongs not above 50 nM. Regarding `Fc1cccc(-c2ccncc2)c1-c1ccc(OCc2ccc3ccccc3n2)cc1` [Example 381, 2-(6′-Fluoro-2′-pyridin-4-yl-biphenyl-4-yloxymethyl)-quinoline], the IC50 is more than 50 nM. To `Clc1cccc(-c2ccncc2)c1-c1ccc(OCc2ccc3ccccc3n2)cc1` [Example 382, 2-((2′-Chloro-6′-(pyridin-4-yl)biphenyl-4-yloxy)methyl)quinoline] belongs not above 50 nM. To `N#Cc1cccc(-c2ccncc2)c1-c1ccc(OCc2ccc3ccccc3n2)cc1` [Example 383, 6-Pyridin-4-yl-4′-(quinolin-2-ylmethoxy)-biphenyl-2-carbonitrile] belongs not above 50 nM. Next, `O=[N+]([O-])c1cccc(-c2ccncc2)c1-c1ccc(OCc2ccc3ccccc3n2)cc1` [Example 384, 2-(2′-Nitro-6′-pyridin-4-yl-biphenyl-4-yloxymethyl)-quinoline]: not above 50 nM; `COc1cccc(-c2ccncc2)c1-c1ccc(OCc2ccc3ccccc3n2)cc1` [Example 385, 2-((2′-Methoxy-6′-(pyridin-4-yl)biphenyl-4-yloxy)methyl)quinoline]: not above 50 nM; `Cc1cccc(-c2ccncc2)c1-c1ccc(OCc2ccc3ccccc3n2)cc1` [Example 387, 2-(6′-Methyl-2′-pyridin-4-yl-biphenyl-4-yloxymethyl)-quinoline]: not above 50 nM.

With `CS(=O)(=O)c1cccc(-c2ccncc2)c1-c1ccc(OCc2ccc3ccccc3n2)cc1` [Example 392, 2-((2′-(methylsulfonyl)-6′-(pyridin-4-yl)biphenyl-4-yloxy)methyl)quinoline], the IC50 is not above 50 nM. Next, `Fc1ccc(-c2ccncc2)c(-c2ccc(OCc3ccc4ccccc4n3)cc2)c1` [Example 404, 2-((5′-fluoro-2′-(pyridin-4-yl)biphenyl-4-yloxy)methyl)quinoline]: not above 50 nM; `Clc1ccc(-c2ccncc2)c(-c2ccc(OCc3ccc4ccccc4n3)cc2)c1` [Example 405, 2-((5′-Chloro-2′-(pyridin-4-yl)biphenyl-4-yloxy)methyl)quinoline]: not above 50 nM; `N#Cc1ccc(-c2ccncc2)c(-c2ccc(OCc3ccc4ccccc4n3)cc2)c1` [Example 406, 6-(Pyridin-4-yl)-4′-(quinolin-2-ylmethoxy)biphenyl-3-carbonitrile]: not above 50 nM. With `Cc1ccc(-c2ccncc2)c(-c2ccc(OCc3ccc4ccccc4n3)cc2)c1` [Example 408, 2-(5′-Methyl-2′-pyridin-4-yl-biphenyl-4-yloxymethyl)-quinoline], the IC50 was not above 50 nM. As to `CC(C)c1ccccc1-c1ccc(OCc2ccc3ccccc3n2)cc1` [Example 443, 2-((2′-isopropylbiphenyl-4-yloxy)methyl)quinoline], the IC50 was more than 50 nM. Next, `Cc1ccccc1-c1ccc(OCc2ccc3ccccc3n2)cc1` [Example 444, 2-((2′-methylbiphenyl-4-yloxy)methyl)quinoline]: more than 50 nM; `c1ccc(N2CCOCC2)c(-c2ccc(OCc3ccc4ccccc4n3)cc2)c1` [Example 445, 4-(4′-(quinolin-2-ylmethoxy)biphenyl-2-yl)morpholine]: more than 50 nM. To `N#Cc1cccc(N2CCOCC2)c1-c1ccc(OCc2ccc3ccccc3n2)cc1` [Example 448, 6-morpholino-4′-(quinolin-2-ylmethoxy)biphenyl-2-carbonitrile] belongs not above 50 nM. Next, `Fc1ccc(N2CCOCC2)c(-c2ccc(OCc3ccc4ccccc4n3)cc2)c1` [Example 469, 4-(5-fluoro-4′-(quinolin-2-ylmethoxy)biphenyl-2-yl)morpholine]: not above 50 nM. Turning to `Cc1ccc(COc2ccc(-c3ccccc3-c3ccncc3)cc2)nc1` [Example 501, 5-methyl-2-((2′-(pyridin-4-yl)biphenyl-4-yloxy)methyl)pyridine], the IC50 was not above 50 nM. To `Fc1ccc2nc(COc3ccc(-c4ccccc4-c4ccncc4)cc3)ccc2c1` [Example 560, 6-fluoro-2-((2′-(pyridin-4-yl)biphenyl-4-yloxy)methyl)quinoline] belongs not above 50 nM; to `c1ccc(-c2ccc(OCc3cn4ccccc4n3)cc2)c(-c2ccncc2)c1` [Example 619, 2-((2′-(pyridin-4-yl)biphenyl-4-yloxy)methyl)imidazo[1,2-a]pyridine], not above 50 nM.

As to `Fc1ccc(-c2ccncc2)c(N2CCC(OCc3ccc4ccccc4n3)CC2)c1` [Example 1706, 2-((1-(5-fluoro-2-(pyridin-4-yl)phenyl)piperidin-4-yloxy)methyl)quinoline], the IC50 is more than 50 nM.

Turning to `O=Cc1cccc(-c2ccncc2)c1-c1ccc(OCc2ccc3ccccc3n2)cc1` [Example 1854, 6-(Pyridin-4-yl)-4′-(quinolin-2-ylmethoxy)biphenyl-2-carbaldehyde], the IC50 is not above 50 nM.

Consider `N#Cc1cc(-c2ccccc2-c2ccc(OCc3ccc4ccccc4n3)cc2)ccc1Cl` [Example 1855], for which the IC50 is not above 50 nM. Turning to `Fc1ccc(-c2ccc(OCc3ccc4ccccc4n3)cc2)c(-c2ccncc2)c1` [Example 1856, 2-(4′-Fluoro-2′-pyridin-4-yl-biphenyl-4-yloxymethyl)-quinoline], the IC50 is not above 50 nM. Take `c1cc(-c2ccncc2)c(-c2ccc(OCc3ccc4ccccc4n3)cc2)c(C2OCCCO2)c1` [Example 1857, 2-((2′-(1,3-Dioxan-2-yl)-6′-(pyridin-4-yl)biphenyl-4-yloxy)methyl)quinoline]: the IC50 was not above 50 nM. In the case of `COc1ccc(-c2ccccc2-c2ccc(OCc3ccc4ccccc4n3)cc2)cc1F` [Example 1858], the IC50 is not above 50 nM. To `Cc1cc(-c2ccccc2-c2ccc(OCc3ccc4ccccc4n3)cc2)ccn1` [Example 1859, 2-((2′-(2-methylpyridin-4-yl)biphenyl-4-yloxy)methyl)quinoline] belongs not above 50 nM. Next, `COc1ccc(-c2ccccc2-c2ccc(OCc3ccc4ccccc4n3)cc2)cc1C(F)(F)F` [Example 1860]: not above 50 nM; `COc1cc(-c2ccccc2-c2ccc(OCc3ccc4ccccc4n3)cc2)ccc1Cl` [Example 1861]: not above 50 nM; `COc1cc(-c2ccncc2)c(-c2ccc(OCc3ccc4ccccc4n3)cc2)cc1OC` [Example 1862, 2-((4′,5′-dimethoxy-2′-(pyridin-4-yl)biphenyl-4-yloxy)methyl)quinoline]: more than 50 nM.

Turning to `c1ccc(-c2ccccc2-c2ccc(OCc3ccc4ccccc4n3)cc2)cc1` [Example 1863], the IC50 was more than 50 nM. To `O=C(c1cccc(-c2ccncc2)c1-c1ccc(OCc2ccc3ccccc3n2)cc1)N1CCOCC1` [Example 1864, morpholino(6-(pyridin-4-yl)-4′-(quinolin-2-ylmethoxy)biphenyl-2-yl)methanone] belongs more than 50 nM; to `N#Cc1ccc(-c2ccccc2-c2ccc(OCc3ccc4ccccc4n3)cc2)cc1Cl` [Example 1865], more than 50 nM. Turning to `CCCc1ccccc1-c1ccc(OCc2ccc3ccccc3n2)cc1` [Example 1866, 2-((2′-propylbiphenyl-4-yloxy)methyl)quinoline], the IC50 was more than 50 nM.

Turning to `Cc1ccc(-c2ccc(OCc3ccc4ccccc4n3)cc2)c(-c2ccncc2)c1` [Example 1867, 2-(4′-Methyl-2′-pyridin-4-yl-biphenyl-4-yloxymethyl)-quinoline], the IC50 was more than 50 nM. To `c1ccc(N2CCCC2)c(-c2ccc(OCc3ccc4ccccc4n3)cc2)c1` [Example 1868, 2-((2′-(pyrrolidin-1-yl)biphenyl-4-yloxy)methyl)quinoline] belongs more than 50 nM.

`COc1ccc(-c2ccccc2-c2ccc(OCc3ccc4ccccc4n3)cc2)cc1Cl` [Example 1869]: the IC50 was more than 50 nM.

With `N#Cc1cccc(-c2ccc(OCc3ccc4ccccc4n3)cc2)c1-c1ccncc1` [Example 1870, 2-Pyridin-4-yl-4′-(quinolin-2-ylmethoxy)-biphenyl-3-carbonitrile], the IC50 is more than 50 nM. Next, `c1ccc(-c2ccoc2)c(-c2ccc(OCc3ccc4ccccc4n3)cc2)c1` [Example 1871, 2-((2′-(furan-3-yl)biphenyl-4-yloxy)methyl)quinoline]: more than 50 nM.

With `Clc1cccc(-c2ccc(OCc3ccc4ccccc4n3)cc2)c1-c1ccncc1` [Example 1872, 2-((3′-Chloro-2′-(pyridin-4-yl)biphenyl-4-yloxy)methyl)quinoline], the half-maximal inhibitory concentration (IC50) was more than 50 nM.
